Measured values: patent US11426417B2, “Neuroactive steroid formulations and methods of treating CNS disorders” (Sage Therapeutics, Inc., priority 2012, dated 2022)

Key:
Fmr1 KO mice = assay: Audiogenic seizure (AGS) status epilepticus rescue in Fmr1 knockout mice; assay type: in vivo; conditions: 3, 10, 30 mg/kg IP in 30% b-Cyclodextrin; relative to vehicle treated control
Description: FIG. 1A is a bar graph depicting the percent seizure in fmr1 KO mice intraperitoneally administered 3, 10, 30 mg/kg allopregnanolone in 30% β-Cyclodextrin. FIG. 1B is a bar graph depicting the percent survival in fmr1 KO mice intraperitoneally administered 3, 10, 30 mg/kg allopregnanolone in 30% β-Cyclodextrin.
Plasma levels of six animals in each Allopregnanolone treatment group were collected randomly at completion of study and analyzed by LC-MS/MS. Bioanalytical measures are indicated in ng/mL (FIG. 1A). Data are presented as mean+/−SEM. *P<0.05 indicate a statistically significant difference relative to vehicle control by Fisher's PLSD. MPEP 30 mg/kg was used as a positive control in the study.

[1] = Plasma and brain exposure by LC/MS-MS after single IM or IV dose; conditions: 30% CAPTISOL, SD rats
Description: FIG. 4A depicts the plasma exposure profiles of allopregnanolone measured by LC/MS-MS after single intramuscular (10 mg/kg) or intravenous (5 mg/kg) allopregnanolone dose in 30% CAPTISOL® in SD rats. FIG. 4B depicts the brain exposure profiles of allopregnanolone measured by LC/MS-MS after single intramuscular (10 mg/kg) or intravenous (5 mg/kg) allopregnanolone dose in 30% CAPTISOL® in SD rats.
The plasma and brain exposure profiles of Allopregnanolone were measured by LC/MS-MS after single intramuscular (IM) (10 mg/kg) or intravenous (IV) (5 mg/kg) dose in 30% CAPTISOL® in SD rats. […] N=2/time point. Error bars, SEM (FIGS. 4A and 4B).

[2] = tested on: PTZ-treated C57BL6/J mice; assay: PTZ (pentylenetetrazol) seizure model, prevention of status epilepticus; assay type: in vivo; conditions: 3, 10, 30 mg/kg IP in 15% β-Cyclodextrin; PTZ 85 mg/kg IP; relative to vehicle-treated control
Description: FIG. 2A is a graph depicting the seizure rank in PZT treated C57BL6/J mice intraperitoneally administered 3, 10, 30 mg/kg allopregnanolone in 15% β-Cyclodextrin. FIG. 2B is graph depicting the latency to death period in PZT treated C57BL65 mice intraperitoneally administered 3, 10, 30 mg/kg allopregnanolone in 15% β-Cyclodextrin.
Plasma levels of three animals in each Allopregnanolone treatment group were collected randomly at completion of study and analyzed by LC-MS/MS. Bioanalytical measures are indicated in ng/mL (FIG. 2A). Data are presented as mean+/−SEM. *P<0.05 indicate a statistically significant difference relative to vehicle control by Fisher's PLSD. Valproate 400 mg/kg was used as a positive control in the study.

[3] = tested on: penetrating ballistic brain injury rodent model; assay: Penetrating ballistic brain injury rodent model of traumatic brain injury; assay type: in vivo; conditions: in 6% CAPTISOL; low (2.5 then 1.25 mg/kg/hr) and high (5.0 then 2.50 mg/kg/hr) dose groups, 5 day infusion
From the text: FIG. 5A depicts the latency to fall period (seconds) in a penetrating ballistic brain injury rodent model of traumatic brain injury in both the low and high dose groups progesterone in 6% CAPTISOL®. FIG. 5B depicts the mean motor score in a penetrating ballistic brain injury rodent model of traumatic brain injury in both the low and high dose groups progesterone in 6% CAPTISOL®.
Progesterone in 6% CAPTISOL® rescued motor impairment in a penetrating ballistic brain injury rodent model of traumatic brain injury in both the low and high dose groups (FIG. 5A and FIG. 5B). Progesterone was administered via a bolus loading dose followed by a 5 day continuous infusion where progesterone was tapered over the last 24 hours every 8 hrs by 25%. The low dose group received 2.5 mg/kg/hr for a 1 hr bolus infusion followed by a maintenance dose of 1.25 mg/kg/hr over 5 days with the last 24 hours being a taper. The high dose group received 5.0 mg/kg/hr for a 1 hr bolus infusion followed by a maintenance dose of 2.50 mg/kg/hr over 5 days with the last 24 hours being a taper.

CC(=O)[C@H]1CC[C@H]2[C@@H]3CC[C@H]4C[C@H](O)CC[C@]4(C)[C@H]3CC[C@]12C [Allopregnanolone, 3 alpha-hydroxy-5 alpha-pregnan-20-one]
Percent Seizure (Fmr1 KO mice): significant decrease
Percent Survival (Fmr1 KO mice): increase
exposure in plasma, IM (10 mg/kg) relative to IV (5 mg/kg) dose ([1]; 0.5-2 hr): 671-916%
exposure in brain, IM (10 mg/kg) relative to IV (5 mg/kg) dose ([1]; 1 hr): 506%
Latency to Death [2]: increase
Seizure rank [2]: significant decrease

CC(=O)[C@H]1CC[C@H]2[C@@H]3CCC4=CC(=O)CC[C@]4(C)[C@H]3CC[C@]12C [Progesterone, pregn-4-ene-3,20-dione]
motor impairment (latency to fall, mean motor score) [3]: rescued
